Source: BindingDB's records for patent US20250289799 (Jiangsu Yahong Meditech Co., 2025)

Each compound was assayed against Ubiquitin carboxyl-terminal hydrolase 1/WD repeat-containing protein 48 (Homo sapiens, UniProt O94782+Q8TAF3) (assay: In Vitro USP1  Inhibitory Activity).
Procedure: Experimental Methods1) Preparation of 1× assay buffer: 1× assay buffer (modified Tris buffer) was prepared;2) Compound dilution: The compound was transferred to the assay plate by Echo.

Ubiquitin carboxyl-terminal hydrolase 1/WD repeat-containing protein 48, sequence (O94782 whole entry): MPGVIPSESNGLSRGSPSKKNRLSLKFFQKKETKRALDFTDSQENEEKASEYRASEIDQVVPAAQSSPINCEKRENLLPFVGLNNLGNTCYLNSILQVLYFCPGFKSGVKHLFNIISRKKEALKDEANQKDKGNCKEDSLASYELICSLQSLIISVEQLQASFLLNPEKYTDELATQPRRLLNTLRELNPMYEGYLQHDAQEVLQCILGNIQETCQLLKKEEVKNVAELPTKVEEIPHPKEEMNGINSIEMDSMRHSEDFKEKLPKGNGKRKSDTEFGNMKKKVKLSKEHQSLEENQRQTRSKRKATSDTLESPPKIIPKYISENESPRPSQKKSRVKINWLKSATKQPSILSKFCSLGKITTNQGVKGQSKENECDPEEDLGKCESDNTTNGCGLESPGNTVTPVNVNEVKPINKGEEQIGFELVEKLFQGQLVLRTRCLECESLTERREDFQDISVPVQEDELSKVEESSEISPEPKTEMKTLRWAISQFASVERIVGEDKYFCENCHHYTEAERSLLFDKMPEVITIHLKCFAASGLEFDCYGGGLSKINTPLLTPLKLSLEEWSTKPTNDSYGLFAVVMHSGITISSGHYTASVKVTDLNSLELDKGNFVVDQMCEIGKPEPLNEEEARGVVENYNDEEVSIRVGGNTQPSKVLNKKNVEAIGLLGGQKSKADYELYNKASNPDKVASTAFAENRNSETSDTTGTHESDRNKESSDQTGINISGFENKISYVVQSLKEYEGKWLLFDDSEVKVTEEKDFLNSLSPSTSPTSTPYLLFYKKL
Ubiquitin carboxyl-terminal hydrolase 1/WD repeat-containing protein 48, sequence (Q8TAF3 whole entry): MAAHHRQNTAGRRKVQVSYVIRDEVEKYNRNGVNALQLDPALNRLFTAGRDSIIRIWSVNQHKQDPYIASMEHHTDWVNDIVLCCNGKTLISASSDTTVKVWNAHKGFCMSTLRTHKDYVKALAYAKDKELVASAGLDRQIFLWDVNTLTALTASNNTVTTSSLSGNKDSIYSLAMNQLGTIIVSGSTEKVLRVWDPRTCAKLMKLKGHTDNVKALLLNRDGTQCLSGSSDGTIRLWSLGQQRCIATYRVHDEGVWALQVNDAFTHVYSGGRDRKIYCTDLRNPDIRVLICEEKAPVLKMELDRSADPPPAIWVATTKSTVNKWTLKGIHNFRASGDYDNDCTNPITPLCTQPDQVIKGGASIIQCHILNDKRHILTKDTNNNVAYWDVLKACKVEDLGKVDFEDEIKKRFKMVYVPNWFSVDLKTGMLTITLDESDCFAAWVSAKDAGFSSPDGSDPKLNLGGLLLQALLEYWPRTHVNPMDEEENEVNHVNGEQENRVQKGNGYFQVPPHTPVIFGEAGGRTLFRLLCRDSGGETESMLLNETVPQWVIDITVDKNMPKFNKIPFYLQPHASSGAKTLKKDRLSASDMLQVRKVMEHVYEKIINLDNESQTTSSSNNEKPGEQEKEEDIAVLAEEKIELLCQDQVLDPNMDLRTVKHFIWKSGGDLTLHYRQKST

Row | Compound | IC50 [nM]
1 | COc1cnc(-c2c(OC)ncnc2C2CC2)nc1NCc1ccc(-c2ccccn2)cc1 [US20250289799, Example 94] | 6.5
2 | COc1cc(CNc2nc(-c3ccccc3C(C)C)ncc2OC)ccc1-n1nc(C(F)(F)F)cc1C [US20250289799, Example 69] | 9.2
3 | COc1ncnc(C2CC2)c1-c1ncc(OC(C)C)c(NCc2ccc(-c3nc(C(F)(F)F)cn3C)cc2)n1 [US20250289799, Example 111] | 10.4
4 | COc1cnn(C(C)C)c1-c1nc(NCc2ccc(-n3nc(C(F)(F)F)cc3C)cc2)c2occc2n1 [US20250289799, Example 182] | 7.4
5 | CC(C)c1ccccc1-c1nc(NCc2ccc(-c3ccccn3)cc2)c2[nH]ccc2n1 [US20250289799, Example 36] | 22.4
6 | COc1cnc(-c2cccnc2C2CC2)nc1NCc1ccc(-c2nc(C(F)(F)F)cn2C)cc1 [US20250289799, Example 153] | 3.4
7 | COc1cnc(-c2c(OC)ncnc2C2CC2)nc1N(C)Cc1ccc(-c2nc(C(F)(F)F)cn2C)cc1 [US20250289799, Example 8] | 1.4
8 | COc1cnc(-c2ccccc2C(C)C)nc1N(C)Cc1ccc(-c2ccccn2)cc1 [US20250289799, Example 1] | 26
9 | Cc1cc(C(F)(F)F)nn1-c1ccc(CNc2nc(-c3ccccc3C(C)C)nc3ccoc23)cc1 [US20250289799, Example 57] | 4.4
10 | CC(C)c1ccccc1-c1nc(NCc2ccc(-c3ccccn3)cc2)c2occc2n1 [US20250289799, Example 32] | 2.8
11 | CC(C)Oc1cnc(-c2ccccc2C(C)C)nc1N(C)Cc1ccc(-c2nc(C(F)(F)F)cn2C)cc1 [US20250289799, Example 71] | 9.9
12 | COc1cnc(-c2c(C)noc2C(C)C)nc1NCc1ccc(-c2nc(C(F)(F)F)cn2C)cc1 [US20250289799, Example 188] | 15
13 | COc1cc(CNc2nc(-c3c(OC)ncnc3C3CC3)nc3ccoc23)ccc1-c1nc(C(F)(F)F)cn1C [US20250289799, Example 120] | 8.9
14 | COc1ncnc(C2CC2)c1-c1ncc(OC(F)F)c(NCc2ccc(-c3nc(C(F)(F)F)cn3C)cc2)n1 [US20250289799, Example 134] | 3.2
15 | COc1cc(-c2nc(C(F)(F)F)cn2C)ccc1CNc1nc(-c2ccccc2C2CC2)nc2ccoc12 [US20250289799, Example 175] | 3.6
16 | COc1cnc(-c2c(C)noc2C(C)C)nc1N(C)CC1CCN(c2ccccn2)CC1 [US20250289799, Example 186] | 66
17 | Cn1cc(C(F)(F)F)nc1-c1ccc(CNc2nc(-c3cncnc3C3CC3)nc3ccoc23)cc1 [US20250289799, Example 196] | 12
18 | COc1cnn(C2CC2)c1-c1ncc(OC(F)F)c(NCc2ccc(-c3nc(C(F)(F)F)cn3C)cc2)n1 [US20250289799, Example 185] | 9.8
19 | COc1cnc(-c2cccnc2C2CC2)nc1NCc1ccc(-n2nc(C(F)(F)F)cc2C)cc1 [US20250289799, Example 154] | 6.2
20 | CCOCCOc1ccc(CNc2nc(-c3ccccc3C(C)C)nc3ccoc23)cc1 [US20250289799, Example 79] | 4.5

Row | Compound | IC50 [nM]
21 | COc1cnc(-c2c(OC)ncnc2C2CC2)nc1NCc1ccc(-c2nc(C(F)(F)F)cn2C(C)C)cc1 [US20250289799, Example 106] | 2.9
22 | CC(C)c1ccccc1-c1nc(NCc2ccc3c(c2)CCN(C)C3=O)c2occc2n1 [US20250289799, Example 77] | 28
23 | COc1cnc(-c2cncnc2C2CC2)nc1NCc1ccc(-c2nc(C(F)F)cn2C)cc1 [US20250289799, Example 195] | 243
24 | COc1cnc(-c2c(OC)cnn2C(C)C)nc1NCc1ccc(-c2nc(C(F)(F)F)cn2C)cc1 [US20250289799, Example 180] | 15
25 | CCOCCOc1ccc(CNc2nc(-c3c(OC)ncnc3C3CC3)nc3ccoc23)cc1 [US20250289799, Example 117] | 13.8
26 | Cn1cc(C(F)(F)F)nc1-c1ccc(CNc2nc(-c3ccccc3C3CC3)nc3ccoc23)cc1 [US20250289799, Example 173] | 1
27 | COc1cnc(-c2c(OC)ncnc2C2CC2)nc1NCc1ccc(OCc2ccccn2)cc1 [US20250289799, Example 98] | 144
28 | COc1cnc(-c2c(OC)ncnc2C2CC2)nc1NCC12C3C4C1C1C2C3C41c1nc(C(F)(F)F)cn1C1CC1 (centres undefined) [US20250289799, Example 216] | 1.4
29 | CC(C)c1ccccc1-c1ncc(C(F)(F)F)c(NCC2CCN(c3ccccn3)CC2)n1 [US20250289799, Example 76] | 30.1
30 | COc1cnc(-c2ccccc2C(C)C)nc1N(C)Cc1ccc(-c2nc(C(F)(F)F)cn2C)cc1 [US20250289799, Example 3] | 2.8
31 | COc1cnc(-c2c(C)cnn2C(C)C)nc1NCc1ccc(-c2nc(C(F)(F)F)cn2C)cc1 [US20250289799, Example 202] | 3
32 | COc1cnc(-c2c(OC)cnn2C(C)C)nc1NCc1ccc(-c2ccccn2)cc1 [US20250289799, Example 178] | 110
33 | COc1cc(CNc2nc(-c3ccccc3C3CC3)ncc2OC)ccc1-c1nc(C(F)(F)F)cn1C [US20250289799, Example 172] | 12
34 | COc1ncnc(C2CC2)c1-c1ncc(OC(C)C)c(NCC23CCC(c4ccc(C(F)(F)F)cn4)(CC2)CC3)n1 [US20250289799, Example 112] | 266
35 | COc1cnc(-c2c(C)cnn2C2CC2)nc1N(C)Cc1ccc(-c2nc(C(F)(F)F)cn2C)cc1 [US20250289799, Example 198] | 3.2
36 | COc1cnc(-c2c(OC)ncnc2C2CC2)nc1NCC12CCC(c3nc(C(F)(F)F)cn3C)(CC1)CC2 [US20250289799, Example 104] | 8.8
37 | Cc1cc(C(F)(F)F)nn1-c1ccc(CNc2nc(-c3ccccc3C3CC3)nc3ccoc23)cc1 [US20250289799, Example 174] | 5.1
38 | COc1cnc(-c2c(OC)ncnc2C2CC2)nc1NCc1ccc2c(c1)CCN(C(C)C)C2=O [US20250289799, Example 97] | 263
39 | Cc1cc(C(F)(F)F)nn1-c1ccc(CN2C(=O)COc3cnc(-c4ccccc4C(C)C)nc32)cc1 [US20250289799, Example 15] | 6.8

Second part, the compound after the results:

Row | IC50 [nM] | Compound
40 | 9 | COc1cc(CNc2nc(-c3ccccc3C(C)C)nc3ccoc23)ccc1-n1nc(C(F)(F)F)cc1C [US20250289799, Example 84]
41 | 5.2 | C#CCN(Cc1ccc(-c2nc(C(F)(F)F)cn2C)cc1)c1nc(-c2c(OC)ncnc2C2CC2)ncc1OC [US20250289799, Example 139]
42 | 1.1 | CC(C)c1ccccc1-c1ncc(OC(F)F)c(NCc2ccc(-c3nc(C(F)(F)F)cn3C)cc2)n1 [US20250289799, Example 86]
43 | 16 | Cc1noc(C(C)C)c1-c1nc(NCc2ccc(-c3ccccn3)cc2)c2occc2n1 [US20250289799, Example 189]
44 | 10 | COc1cc(CNc2nc(-c3c(OC)ncnc3C3CC3)ncc2OC)ccc1-n1nc(C(F)(F)F)cc1C [US20250289799, Example 103]
45 | 4.8 | COc1cnc(-c2c(OC)ncnc2C2CC2)nc1NCc1ccc(-c2nc(C(F)(F)F)cn2C)cc1 [US20250289799, Example 29]
46 | 2.9 | COc1cnc(-c2cccnc2C(C)C)nc1NCc1ccc(-c2nc(C(F)(F)F)cn2C)cc1 [US20250289799, Example 157]
47 | 19 | [2H]C([2H])([2H])N(Cc1ccc(-c2nc(C(F)(F)F)cn2CF)cc1)c1nc(-c2c(OC)ncnc2C2CC2)ncc1F [US20250289799, Example 130]
48 | 20 | COc1ncnc(C2CC2)c1-c1nc(NCc2ccc(-c3nc(C(F)F)cn3C)cc2)c2occc2n1 [US20250289799, Example 123]
49 | 3.8 | COc1cnc(-c2c(Cl)cnn2C2CC2)nc1NCc1ccc(-c2nc(C(F)(F)F)cn2C)cc1 [US20250289799, Example 192]
50 | 4.3 | COc1cnc(-c2c(Cl)cnn2C2CC2)nc1N(C)Cc1ccc(-c2nc(C(F)(F)F)cn2C)cc1 [US20250289799, Example 191]
51 | 3.7 | COc1cc(-c2nc(C(F)(F)F)cn2C)ccc1CNc1nc(-c2ccccc2C(C)C)nc2ccoc12 [US20250289799, Example 81]
52 | 4.5 | COc1cnc(-c2ccccc2C(C)C)nc1NCc1ccc(-n2nc(C(F)(F)F)cc2C)cc1 [US20250289799, Example 7]
53 | 6.2 | CC(C)c1ccccc1-c1ncc(N2CCOCC2)c(NCc2ccc(-c3nc(C(F)(F)F)cn3C)cc2)n1 [US20250289799, Example 87]
54 | 11 | COc1cnc(-c2ccccc2C(C)C)nc1N(C)CC1CCC(c2ccccn2)CC1 (centres undefined) [US20250289799, Example 61]
55 | 28.6 | COc1ncnc(C2CC2)c1-c1ncc(OC(C)C)c(NCC2CCN(c3nc(C(F)(F)F)cn3C)CC2)n1 [US20250289799, Example 110]
56 | 4.8 | COc1cnc(-c2c(OC)ncnc2C2CC2)nc1NCc1ccc(-c2nc(C(F)(F)F)cn2C)cc1 [US20250289799, Example 96]
57 | 6.1 | COc1ncnc(C2CC2)c1-c1ncc(Cl)c(NCc2ccc(-c3nc(C(F)(F)F)cn3C)cc2)n1 [US20250289799, Example 124]
58 | 17 | COc1cc(-c2nc(C(F)(F)F)cn2C)ccc1CNc1nc(-c2c(OC)ncnc2C2CC2)ncc1OC(F)F [US20250289799, Example 136]
59 | 2.6 | [2H]C([2H])([2H])N(Cc1ccc(-c2nc(C(F)(F)F)cn2C2CC2)cc1)c1nc(-c2c(OC)ncnc2C2CC2)ncc1F [US20250289799, Example 128]
60 | 5.6 | COc1cnc(-c2c(C)cnn2C2CC2)nc1NCc1ccc(-c2nc(C(F)(F)F)cn2C)cc1 [US20250289799, Example 199]
61 | 7.6 | COc1cc(-c2nc(C(F)(F)F)cn2C)ccc1CNc1nc(-c2c(OC)ncnc2C2CC2)nc2ccoc12 [US20250289799, Example 119]
62 | 1.7 | COc1cnc(-c2ccccc2N(C)C)nc1NCc1ccc(-c2nc(C(F)(F)F)cn2C)cc1 [US20250289799, Example 159]
63 | 3.7 | CC(C)c1ccccc1-c1ncc(C(F)(F)F)c(NCC2CCN(c3nc(C(F)(F)F)cn3C)CC2)n1 [US20250289799, Example 25]
64 | 0.47 | C#Cc1cnc(-c2ccccc2C(C)C)nc1NCc1ccc(-c2nc(C(F)(F)F)cn2C)cc1 [US20250289799, Example 85]
